Measured values published in patent publication US10941379B2, “Microbial system for biosynthesis of natural and engineered products coupled to in situ extraction in supercritical CO2” (Massachusetts Institute of Technology, priority 2016, dated 2021).
Peptide text beside a SMILES is read from it.

Tested on: B. megaterium SR7
Experiment: Biolog GenIII sole carbon source growth
Assay type: cell-based, Bacillus megaterium
Details: for Growth in carbon source Biolog plate, +Metals: trace metals-amended plate; for Growth in carbon source Biolog plate, +Metals / Growth in carbon source Biolog plate, I / Growth in carbon source Biolog plate, II: Table 11; for Growth in carbon source Biolog plate, I: unamended plate trial I; for Growth in carbon source Biolog plate, II: unamended plate trial II
Protocol: Plates were incubated at 37° C. on a plate shaker at 200 rpm and assayed for growth using NADH-dependent colorimetric changes measured by OD490 on a microplate reader (BioTek Synergy 2; BioTek; Winooski, Vt.).

CC(=O)CC(=O)O [Acetoacetic Acid]
Growth in carbon source Biolog plate, +Metals: −
Growth in carbon source Biolog plate, I: −
Growth in carbon source Biolog plate, II: +

O=C(O)CC(O)(CC(=O)O)C(=O)O [Citric Acid]
Growth in carbon source Biolog plate, +Metals: +++
Growth in carbon source Biolog plate, I: +++

OC[C@@H](O)C(O)[C@H](O)CO [D-Arabitol]
Growth in carbon source Biolog plate, +Metals: +
Growth in carbon source Biolog plate, I: +
Growth in carbon source Biolog plate, II: +

N[C@H](CC(=O)O)C(=O)O [D-Aspartic Acid]
Growth in carbon source Biolog plate, +Metals: −
Growth in carbon source Biolog plate, I: −
Growth in carbon source Biolog plate, II: −

OC[C@H]1O[C@@H](O[C@H]2[C@H](O)[C@@H](O)[C@H](O)O[C@@H]2CO)[C@H](O)[C@@H](O)[C@@H]1O [D-Cellobiose]
Growth in carbon source Biolog plate, +Metals: +
Growth in carbon source Biolog plate, I: +
Growth in carbon source Biolog plate, II: +

O=P(O)(O)OC[C@H]1OC(O)(CO)[C@@H](O)[C@@H]1O (stereo partly drawn) [D-Fructose-6-PO4]
Growth in carbon source Biolog plate, +Metals: −
Growth in carbon source Biolog plate, I: +
Growth in carbon source Biolog plate, II: −

O=C(CO)[C@@H](O)[C@H](O)[C@H](O)CO [D-Fructose]
Growth in carbon source Biolog plate, +Metals: +
Growth in carbon source Biolog plate, I: +
Growth in carbon source Biolog plate, II: +

C[C@@H](O)[C@H](O)[C@H](O)[C@@H](O)C=O [D-Fucose]
Growth in carbon source Biolog plate, +Metals: −
Growth in carbon source Biolog plate, I: −
Growth in carbon source Biolog plate, II: −

O=C[C@H](O)[C@@H](O)[C@@H](O)[C@H](O)CO [D-Galactose]
Growth in carbon source Biolog plate, +Metals: +
Growth in carbon source Biolog plate, I: +
Growth in carbon source Biolog plate, II: +

O=C[C@H](O)[C@@H](O)[C@@H](O)[C@H](O)C(=O)O [D-Galacturonic Acid]
Growth in carbon source Biolog plate, +Metals: −
Growth in carbon source Biolog plate, I: −
Growth in carbon source Biolog plate, II: +

O=P(O)(O)OC[C@H]1OC(O)[C@H](O)[C@@H](O)[C@@H]1O (stereo partly drawn) [D-Glucose-6-PO4]
Growth in carbon source Biolog plate, +Metals: −
Growth in carbon source Biolog plate, I: −
Growth in carbon source Biolog plate, II: −

O=C[C@H](O)[C@@H](O)[C@H](O)[C@H](O)C(=O)O [D-Glucuronic Acid]
Growth in carbon source Biolog plate, +Metals: −
Growth in carbon source Biolog plate, I: +
Growth in carbon source Biolog plate, II: +

COC(=O)[C@@H](C)O [D-Lactic Acid Methyl Ester]
Growth in carbon source Biolog plate, +Metals: +
Growth in carbon source Biolog plate, I: +
Growth in carbon source Biolog plate, II: +

O=C(O)C[C@@H](O)C(=O)O [D-Malic Acid]
Growth in carbon source Biolog plate, +Metals: −
Growth in carbon source Biolog plate, I: −
Growth in carbon source Biolog plate, II: −

OC[C@H]1O[C@H](O[C@H]2[C@H](O)[C@@H](O)[C@H](O)O[C@@H]2CO)[C@H](O)[C@@H](O)[C@@H]1O [D-Maltose]
Growth on Biolog sole carbon source, SR7 (no metals added, Table 10): −
Growth in carbon source Biolog plate, +Metals: +
Growth in carbon source Biolog plate, I: −
Growth in carbon source Biolog plate, II: +

O=C[C@@H](O)[C@@H](O)[C@H](O)[C@H](O)CO [D-Mannose]
Growth in carbon source Biolog plate, +Metals: −
Growth in carbon source Biolog plate, I: −
Growth in carbon source Biolog plate, II: −

OC[C@H]1O[C@H](OCC2O[C@@H](O)[C@H](O)[C@@H](O)[C@@H]2O)[C@H](O)[C@@H](O)[C@H]1O (stereo partly drawn) [D-Melibiose]
Growth in carbon source Biolog plate, +Metals: +
Growth in carbon source Biolog plate, I: +
Growth in carbon source Biolog plate, II: +

OC[C@H]1O[C@H](OC[C@H]2O[C@H](O[C@]3(CO)O[C@H](CO)[C@@H](O)[C@@H]3O)[C@H](O)[C@@H](O)[C@@H]2O)[C@H](O)[C@@H](O)[C@H]1O [D-Raffinose]
Growth in carbon source Biolog plate, +Metals: +++
Growth in carbon source Biolog plate, I: −
Growth in carbon source Biolog plate, II: +

OC[C@@H](O)[C@@H](O)[C@H](O)[C@@H](O)CO [D-Sorbitol]
Growth in carbon source Biolog plate, +Metals: +
Growth in carbon source Biolog plate, I: +
Growth in carbon source Biolog plate, II: −

OC[C@H]1O[C@H](O[C@H]2O[C@H](CO)[C@@H](O)[C@H](O)[C@H]2O)[C@H](O)[C@@H](O)[C@@H]1O [D-Trehalose]
Growth in carbon source Biolog plate, +Metals: +
Growth in carbon source Biolog plate, I: −
Growth in carbon source Biolog plate, II: +

O=CO [Formic Acid]
Growth in carbon source Biolog plate, +Metals: −
Growth in carbon source Biolog plate, I: +
Growth in carbon source Biolog plate, II: −

NC(=O)[C@@H](O)[C@@H](O)[C@H](O)[C@@H](O)C=O [Glucuronamide]
Growth in carbon source Biolog plate, +Metals: −
Growth in carbon source Biolog plate, I: −
Growth in carbon source Biolog plate, II: −

OCC(O)CO [Glycerol]
Growth in carbon source Biolog plate, +Metals: +
Growth in carbon source Biolog plate, I: +
Growth in carbon source Biolog plate, II: +

NCC(=O)N1CCC[C@H]1C(=O)O [Glycyl-L-Proline] (H-Gly-Pro-OH)
Growth in carbon source Biolog plate, +Metals: −
Growth in carbon source Biolog plate, I: −
Growth in carbon source Biolog plate, II: −

OC[C@H]1O[C@@H](n2cnc3c(O)ncnc32)[C@H](O)[C@@H]1O [Inosine]
Growth in carbon source Biolog plate, +Metals: +
Growth in carbon source Biolog plate, I: −
Growth in carbon source Biolog plate, II: +

N=C(N)NCCC[C@H](N)C(=O)O [L-Arginine]
Growth in carbon source Biolog plate, +Metals: +++
Growth in carbon source Biolog plate, I: +
Growth in carbon source Biolog plate, II: +

C[C@H](O)[C@@H](O)[C@@H](O)[C@H](O)C=O [L-Fucose]
Growth in carbon source Biolog plate, +Metals: −
Growth in carbon source Biolog plate, I: −
Growth in carbon source Biolog plate, II: −

O=C1O[C@H]([C@@H](O)CO)[C@@H](O)[C@@H]1O [L-Galactonic Acid Lactone]
Growth in carbon source Biolog plate, +Metals: −
Growth in carbon source Biolog plate, I: −
Growth in carbon source Biolog plate, II: +

O=C1CC[C@@H](C(=O)O)N1 [L-Pyroglutamic Acid]
Growth in carbon source Biolog plate, +Metals: +++
Growth in carbon source Biolog plate, I: +
Growth in carbon source Biolog plate, II: +

C[C@H](O)[C@H](O)[C@@H](O)[C@@H](O)C=O [L-Rhamnose]
Growth in carbon source Biolog plate, +Metals: −
Growth in carbon source Biolog plate, I: −
Growth in carbon source Biolog plate, II: −

N[C@@H](CO)C(=O)O [L-Serine]
Growth in carbon source Biolog plate, +Metals: −
Growth in carbon source Biolog plate, I: +
Growth in carbon source Biolog plate, II: +

COC(=O)C(C)=O [Methyl Pyruvate]
Growth in carbon source Biolog plate, +Metals: +
Growth in carbon source Biolog plate, I: +
Growth in carbon source Biolog plate, II: +

O=C(O)[C@@H](O)[C@H](O)[C@H](O)[C@@H](O)C(=O)O [Mucic Acid]
Growth in carbon source Biolog plate, +Metals: −
Growth in carbon source Biolog plate, I: −
Growth in carbon source Biolog plate, II: +

CC(=O)N[C@H]1[C@H]([C@H](O)[C@H](O)CO)OC(O)(C(=O)O)C[C@@H]1O (stereo partly drawn) [N-Acetyl Neuraminic Acid]
Growth in carbon source Biolog plate, +Metals: −
Growth in carbon source Biolog plate, I: −
Growth in carbon source Biolog plate, II: −

CC(=O)N[C@H]1C(O)O[C@H](CO)[C@H](O)[C@@H]1O (stereo partly drawn) [N-Acetyl-D-Galactosamine]
Growth in carbon source Biolog plate, +Metals: −
Growth in carbon source Biolog plate, I: +
Growth in carbon source Biolog plate, II: −

CC(=O)N[C@H]1[C@@H](O)[C@H](O)[C@@H](CO)O[C@H]1O [N-Acetyl-β-D-Mannosamine]
Growth in carbon source Biolog plate, +Metals: −
Growth in carbon source Biolog plate, I: −
Growth in carbon source Biolog plate, II: −

CCC(=O)O [Propionic Acid]
Growth in carbon source Biolog plate, +Metals: −
Growth in carbon source Biolog plate, I: −
Growth in carbon source Biolog plate, II: +

O=C(O)[C@]1(O)C[C@@H](O)[C@@H](O)[C@H](O)C1 [Quinic Acid]
Growth in carbon source Biolog plate, +Metals: −
Growth in carbon source Biolog plate, I: −
Growth in carbon source Biolog plate, II: +

OC[C@H]1O[C@H](OC[C@H]2O[C@H](OC[C@H]3O[C@H](O[C@]4(CO)O[C@H](CO)[C@@H](O)[C@@H]4O)[C@H](O)[C@@H](O)[C@@H]3O)[C@H](O)[C@@H](O)[C@H]2O)[C@H](O)[C@@H](O)[C@H]1O [Stachyose]
Growth in carbon source Biolog plate, +Metals: +
Growth in carbon source Biolog plate, I: +
Growth in carbon source Biolog plate, II: +

O[C@H]1[C@H](O)[C@@H](O)[C@H](O)[C@@H](O)[C@H]1O [myo-Inositol]
Growth in carbon source Biolog plate, +Metals: +++
Growth in carbon source Biolog plate, I: −
Growth in carbon source Biolog plate, II: +

O=C(O)Cc1ccc(O)cc1 [p-Hydroxy-Phenylacetic Acid]
Growth in carbon source Biolog plate, +Metals: −
Growth in carbon source Biolog plate, I: −
Growth in carbon source Biolog plate, II: −

NCCCC(=O)O [Υ-Amino-Butryric Acid]
Growth in carbon source Biolog plate, +Metals: +++
Growth in carbon source Biolog plate, I: −
Growth in carbon source Biolog plate, II: +

OC[C@H]1O[C@@H](O[C@H]2[C@H](O)[C@@H](O)[C@@H](O)O[C@@H]2CO)[C@H](O)[C@@H](O)[C@H]1O [α-D-Lactose]
Growth in carbon source Biolog plate, +Metals: +
Growth in carbon source Biolog plate, I: +
Growth in carbon source Biolog plate, II: +

CCC(O)C(=O)O (stereo not drawn) [α-Hydroxy-Butyric Acid]
Growth in carbon source Biolog plate, +Metals: −
Growth in carbon source Biolog plate, I: −
Growth in carbon source Biolog plate, II: −

CCC(=O)C(=O)O [α-Keto-Butyric Acid]
Growth in carbon source Biolog plate, +Metals: −
Growth in carbon source Biolog plate, I: −
Growth in carbon source Biolog plate, II: −

CO[C@@H]1O[C@H](CO)[C@@H](O)[C@H](O)[C@H]1O [β-Methyl-D-Glucoside]
Growth in carbon source Biolog plate, +Metals: +
Growth in carbon source Biolog plate, I: −
Growth in carbon source Biolog plate, II: +

D-Salicin
Growth in carbon source Biolog plate, +Metals: +
Growth in carbon source Biolog plate, I: +
Growth in carbon source Biolog plate, II: +

D-Turanose
Growth in carbon source Biolog plate, +Metals: +++
Growth in carbon source Biolog plate, I: +
Growth in carbon source Biolog plate, II: +
